Data reported in PMC13266984 (Journal of medicinal chemistry, 2026).

Columns and labels:
OE19 (3A1) = molecular target: T1, OE19 (3A1) (Homo sapiens, UniProt P30838); test: Cellular ALDEFLUOR assay in OE19 cells (preferential ALDH3A1 expression)
T1 sequence (P30838 1-453): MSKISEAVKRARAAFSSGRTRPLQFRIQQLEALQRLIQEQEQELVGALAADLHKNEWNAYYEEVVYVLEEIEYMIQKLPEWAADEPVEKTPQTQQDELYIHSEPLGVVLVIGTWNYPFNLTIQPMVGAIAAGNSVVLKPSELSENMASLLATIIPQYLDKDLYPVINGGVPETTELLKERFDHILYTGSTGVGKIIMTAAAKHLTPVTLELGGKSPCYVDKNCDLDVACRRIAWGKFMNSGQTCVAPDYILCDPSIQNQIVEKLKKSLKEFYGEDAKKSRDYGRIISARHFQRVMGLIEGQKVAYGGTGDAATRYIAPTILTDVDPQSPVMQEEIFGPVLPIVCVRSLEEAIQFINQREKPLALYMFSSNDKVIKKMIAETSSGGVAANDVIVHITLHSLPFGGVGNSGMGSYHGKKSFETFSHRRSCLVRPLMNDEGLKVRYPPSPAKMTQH

Human ALDH3A1 = molecular target: T2, Human ALDH3A1 (Homo sapiens, UniProt P30838); test: ALDH3A1 biochemical assay (benzaldehyde/NADP+, diaphorase-resazurin readout, 1,536-well)
T2 sequence (P30838 1-453): T1 sequence (P30838 1-453)

[1] = Table S4, biochemical curve class
[2] = Table S2, in-house analogs, curve class
[3] = Table S1, primary screen, curve class

| AC50 (Human ALDH3A1) [µM] | Efficacy (Human ALDH3A1; Table S2, in-house analogs) | CC-v2 (Human ALDH3A1; [2]) | SMILES | also measured |
| --- | --- | --- | --- | --- |
| 0.004 | – | – | O=C(NCc1ccc(-c2ccsc2)cc1)c1csc(N2CCN(c3cccc(C(F)(F)F)c3)CC2)n1 [NCGC01397331-01] | AC50 (OE19 (3A1)): 3.05 µM; Cell_Efficacy (OE19 (3A1); Table S5, OE19 cells): -82.49; Cell_CC-v2 (OE19 (3A1); Table S5, cellular curve class): -1.3; Efficacy (Human ALDH3A1; Table S5, biochemical): -97.11; CC-v2 (Human ALDH3A1; Table S5, biochemical curve class): -1.1 |
| 0.32 | – | – | Cc1cccc(CNC(=O)c2csc(N3CCN(c4ccc(C(F)(F)F)cc4)CC3)n2)c1 [Compound 7] | AC50 (OE19 (3A1)): 0.88 µM; Cell_Efficacy (OE19 (3A1); Table S4, OE19 cells): -93.28; Cell_CC-v2 (OE19 (3A1); Table S4, cellular curve class): -1.1; Efficacy (Human ALDH3A1; Table S4, biochemical): -97.93; CC-v2 (Human ALDH3A1; [1]): -1.1 |
| 14.5 | – | – | Cc1cccc(CNC(=O)c2csc(N3CCN(c4ccc(C5(C#N)CC5)cc4)CC3)n2)c1 [NCGC01210256-01] | AC50 (OE19 (3A1)): 15.7 µM; Cell_Efficacy (OE19 (3A1); Table S4, OE19 cells): -71.00; Cell_CC-v2 (OE19 (3A1); Table S4, cellular curve class): -1.4; Efficacy (Human ALDH3A1; Table S4, biochemical): -66.81; CC-v2 (Human ALDH3A1; [1]): -1.2 |
| 3.64 | – | – | Cc1cccc(CNC(=O)c2csc(N3CCN(c4cccc([S+](C)(=O)[O-])c4)CC3)n2)c1 [NCGC01210723-01] | AC50 (OE19 (3A1)): 1.24 µM; Cell_Efficacy (OE19 (3A1); Table S4, OE19 cells): -75.10; Cell_CC-v2 (OE19 (3A1); Table S4, cellular curve class): -1.2; Efficacy (Human ALDH3A1; Table S4, biochemical): -72.64; CC-v2 (Human ALDH3A1; [1]): -1.2 |
| 1.45 | – | – | Cc1cccc(CNC(=O)c2csc(N3CCN(c4ccc(C#N)cc4)CC3)n2)c1 [NCGC01211190-01] | AC50 (OE19 (3A1)): 3.51 µM; Cell_Efficacy (OE19 (3A1); Table S4, OE19 cells): -84.69; Cell_CC-v2 (OE19 (3A1); Table S4, cellular curve class): -1.1; Efficacy (Human ALDH3A1; Table S4, biochemical): -61.92; CC-v2 (Human ALDH3A1; [1]): -1.2 |
| 15.8 | -57.30 | -2.2 | O=C(NCc1ccncc1)c1csc(N2CCN(c3ccccc3F)CC2)n1 [NCGC00430720-01] | – |
| 12.6 | -91.30 | -2.2 | Cc1nn(-c2ccc(C(C)C)cc2)c(C)c1[C@@H]1C=C[C@@H](NCc2ccc(F)cc2)C1 [NCGC00401594-01] | – |
| 10 | – | – | O=C(NCc1ccc(Cl)cc1)c1cc2n(n1)CC(c1ccc3c(c1)OCO3)OC2 (stereo not drawn) [NCGC00450299-01] | Efficacy (Human ALDH3A1; Table S1, primary screen): -21.09; CC-v2 (Human ALDH3A1; [3]): -1.4 |
| 28.2 | – | – | CCn1nc(C)c(CNC(=O)c2cc(COc3ccc4ncccc4c3)on2)c1C [NCGC00426725-01] | Efficacy (Human ALDH3A1; Table S1, primary screen): -57.51; CC-v2 (Human ALDH3A1; [3]): -2.2 |
| 35.5 | – | – | NC(=O)[C@H](Cc1ccc(O)cc1)NC(=O)[C@@]1(O)C[C@@H](O)[C@H](O)[C@@H](NC(=O)c2ccc(F)c(Cl)c2)C1 [NCGC00398197-01] | Efficacy (Human ALDH3A1; Table S1, primary screen): -17.95; CC-v2 (Human ALDH3A1; [3]): -2.4 |
| 28.2 | -105.83 | -2.1 | COc1ccc(-n2nc(C)c([C@@H]3C=C[C@@H](NCc4ccc(N(C)C)cc4)C3)c2C)cc1 [NCGC00394616-01] | – |
| 3.98 | -97.74 | -1.1 | Cc1cc(Cl)ccc1-n1nc(C)c([C@@H]2C=C[C@@H](NC(=O)c3ccc(N(C)C)cc3)C2)c1C [NCGC00394621-01] | – |
| 10 | -39.09 | -1.2 | Cc1nn(-c2ccc(C(C)C)cc2)c(C)c1[C@@H]1C=C[C@@H](NCc2cccc(C#N)c2)C1 [NCGC00421409-01] | – |
| 14.1 | -93.02 | -1.1 | COc1ccc(NC(=O)N[C@@H]2C=C[C@@H](c3c(C)nn(CCC#N)c3C)C2)cc1 [NCGC00399960-01] | – |
| 15.8 | -69.78 | -2.4 | COc1ccc(CN2C[C@@H](F)[C@@H](OCc3nc4cnccc4[nH]3)C2)cc1 [NCGC00391075-01] | – |
| 35.5 | – | – | CC1(COCC2CC2)COc2ccc(C(=O)Nc3cccc([S+](C)(=O)[O-])c3)cc2N1 (stereo not drawn) [NCGC00416184-01] | Efficacy (Human ALDH3A1; Table S1, primary screen): -42.40; CC-v2 (Human ALDH3A1; [3]): -2.4 |
| 7.94 | – | – | CC(=O)Nc1ccc(CN2CC(Oc3ccc4c(c3)OCO4)C2)cc1 [NCGC00373680-01] | Efficacy (Human ALDH3A1; Table S1, primary screen): -29.03; CC-v2 (Human ALDH3A1; [3]): -1.4 |
| 12.6 | -54.71 | -2.2 | COc1cccc(N2CCN(c3nc(C(=O)NCc4ccco4)cs3)CC2)c1 [Compound 3] | – |
| 15.8 | -39.10 | -2.2 | Cc1cc(CNC(=O)c2cc(-c3cnn(C)c3)cc3c2OCCN3C)no1 [NCGC00417081-01] | – |
| 31.6 | – | – | CCCNC(=O)N1CC(Oc2ccc(-c3nc(C)no3)cc2)C1 [NCGC00441061-01] | Efficacy (Human ALDH3A1; Table S1, primary screen): -48.80; CC-v2 (Human ALDH3A1; [3]): -2.2 |
| 4.47 | – | – | Cc1ccc2nc(CN3CCC(c4cccc(C#N)c4)CC3)cc(O)c2c1 [NCGC00449346-01] | Efficacy (Human ALDH3A1; Table S1, primary screen): -31.03; CC-v2 (Human ALDH3A1; [3]): -1.2 |
| 2.51 | -72.54 | -1.2 | COc1cccc(N2CCN(c3nc(C(=O)NCc4cccc(C)c4)cs3)CC2)c1 [Compound 2] | – |
| 12.6 | -37.26 | -2.2 | Cc1nn(-c2ccc(C(F)(F)F)cc2)c(C)c1[C@@H]1C=C[C@@H](NCc2ccc(N(C)C)cc2)C1 [NCGC00392637-01] | – |

| AC50 (Human ALDH3A1) [µM] | Efficacy (Human ALDH3A1; Table S2, in-house analogs) | CC-v2 (Human ALDH3A1; [2]) | SMILES | also measured |
| --- | --- | --- | --- | --- |
| 15.8 | – | – | COCC(=O)Nc1ncncc1-c1noc([C@@H]2CCCN2Cc2cc(OC)c(OC)c(OC)c2)n1 [NCGC00394846-01] | Efficacy (Human ALDH3A1; Table S1, primary screen): -70.18; CC-v2 (Human ALDH3A1; [3]): -2.2 |
| 0.79 | -54.49 | -1.4 | CN1CCOc2c(C(=O)NCc3cccnc3)cc(-c3cnn(C)c3)cc21 [NCGC00417099-01] | – |
| 20 | -27.04 | -2.4 | COc1cc(F)ccc1-c1cc(C(=O)NCCC(N)=O)c2c(c1)N(C)CCO2 [NCGC00417040-01] | – |
| 4.47 | -26.14 | -2.4 | Cc1ccc2[nH]c(CO[C@H]3CN(Cc4ccc(F)c(F)c4)C[C@H]3F)nc2c1 [NCGC00392991-01] | – |
| 3.98 | -57.20 | -1.2 | COc1ccc(N2CCN(c3nc(C(=O)NCc4ccc(C)cc4)cs3)CC2)cc1 [NCGC00430668-01] | – |
| 0.11 | -32.51 | -1.2 | COc1ccc(N2CCN(c3nc(C(=O)NC4CC4)cs3)CC2)cc1 [NCGC00430672-01] | – |
| 12.6 | -83.58 | -1.1 | CNC(=O)c1cccc(-c2cnc3[nH]cc(CC(=O)NCC(C)C)c3c2)c1 [NCGC00412294-01] | – |
| 39.8 | – | – | CNCc1cn(C[C@H]2O[C@@H](CC(=O)NCc3ccc(F)cc3)[C@H](O)[C@@H]2O)nn1 [NCGC00400077-01] | Efficacy (Human ALDH3A1; Table S1, primary screen): -39.06; CC-v2 (Human ALDH3A1; [3]): -2.2 |
| 28.2 | -62.94 | -2.2 | COC(=O)c1ccc2nc(CO[C@H]3CN(Cc4ccc(C(F)(F)F)cc4)C[C@H]3F)[nH]c2c1 [NCGC00392986-01] | – |
| 0.32 | -23.33 | -1.4 | Cc1ccc2[nH]c(CO[C@H]3CN(C4CCOCC4)C[C@H]3F)nc2c1 [NCGC00392993-01] | – |
| 2.82 | -61.06 | -2.2 | Cc1c(-c2cc(C(=O)NCc3cccnc3)c3c(c2)N(C)CCO3)cnn1C [NCGC00417124-01] | – |
| 14.1 | -101.87 | -2.1 | Cc1ccc(-n2nc(C)c([C@@H]3C=C[C@@H](NCc4ccc(N(C)C)cc4)C3)c2C)cc1Cl [NCGC00395823-01] | – |
| 0.25 | -26.81 | -1.4 | CNC(=O)c1cccc(-c2cnc3[nH]cc(CC(=O)N(C)c4ccccc4)c3c2)c1 [NCGC00412252-01] | – |
| 12.6 | -75.42 | -2.2 | COc1cccc(N2CCN(c3nc(C(=O)NCc4ccncc4)cs3)CC2)c1 [NCGC00430686-01] | – |
| 6.31 | -78.52 | -1.2 | O=C(NCc1cccs1)c1csc(N2CCN(c3ccccc3F)CC2)n1 [NCGC00430730-01] | – |
| 14.1 | – | – | COc1ccc(CNc2cc3c(cn2)CN(Cc2ccccc2)CCN3)cc1OC [NCGC00411020-01] | Efficacy (Human ALDH3A1; Table S1, primary screen): -49.01; CC-v2 (Human ALDH3A1; [3]): -2.2 |
| 20 | – | – | Cc1cc(=O)[nH]c(N2CCC(NC(=O)NCc3ccco3)CC2)n1 [NCGC00530028-01] | Efficacy (Human ALDH3A1; Table S1, primary screen): -57.15; CC-v2 (Human ALDH3A1; [3]): -2.2 |
| 28.2 | -62.15 | -2.2 | Cc1nn(CCC#N)c(C)c1[C@@H]1C=C[C@@H](NC(=O)Nc2ccc(Cl)cc2)C1 [NCGC00399959-01] | – |
| 4.47 | -32.83 | -1.4 | COc1ccc(N2CCN(c3nc(C(=O)NCc4ccc(F)cc4F)cs3)CC2)cc1 [NCGC00430664-01] | – |
| 2.82 | -45.69 | -1.2 | COc1cccc(N2CCN(c3nc(C(=O)NCc4ccccc4F)cs3)CC2)c1 [NCGC00430688-01] | – |
| 14.1 | – | – | COc1cccc(CNC(=O)CCNc2cnc3cnccn23)c1 [NCGC00433986-01] | Efficacy (Human ALDH3A1; Table S1, primary screen): -81.82; CC-v2 (Human ALDH3A1; [3]): -2.2 |
| 0.63 | -48.22 | -1.2 | CN1CCOc2c(C(=O)NCCC(N)=O)cc(-c3ccccc3O)cc21 [NCGC00417061-01] | – |
